Measured values as given in patent US11912699B2, “Tau-protein targeting compounds and associated” (Arvinas Operations, Inc., priority 2019, dated 2024).
Like-named read-outs stand apart in the source and are kept apart here. Blank lines part the entries; values can stand above or below the compound they belong to.

Key:
pathologic tau [1] = molecular target: T1, pathologic tau (Homo sapiens, UniProt P10636, P618L); experiment: Pathologic tau in Tg2508 brain after intravenous dosing, measured by Wes capillary gel electrophoresis; type: in vivo, Tg2508 tauopathy mice; settings: 15, 3, 1 or 0.3 mpk intravenous, 24 hours post dose, Tg2508 hippocampi
T1 construct: tissue Taconic; host or cells: cortex / hippocampus of Tg2508 transgenic mice, sarkosyl-insoluble fraction or brain extract
T1 sequence (P10636 1-383 isoform P10636-6 P243L): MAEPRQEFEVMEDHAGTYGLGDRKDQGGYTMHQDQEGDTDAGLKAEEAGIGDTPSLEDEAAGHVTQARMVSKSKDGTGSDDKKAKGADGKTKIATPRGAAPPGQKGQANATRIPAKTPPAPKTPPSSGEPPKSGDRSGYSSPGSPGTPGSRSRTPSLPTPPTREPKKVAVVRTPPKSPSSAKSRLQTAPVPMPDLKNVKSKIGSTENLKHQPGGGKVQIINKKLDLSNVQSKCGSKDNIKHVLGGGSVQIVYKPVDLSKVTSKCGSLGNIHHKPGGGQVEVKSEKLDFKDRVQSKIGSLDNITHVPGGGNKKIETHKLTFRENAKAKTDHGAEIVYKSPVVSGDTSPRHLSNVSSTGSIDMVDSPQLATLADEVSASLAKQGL
Protocol: (§1) FIGS. 3A and 3B. Exemplary bifunctional compounds degrade greater than 95% of pathologic tau in Tg2508 brain following parenteral administration in vivo. Tg2508 tauopathy mice were dosed (12 animals per group) with either 15 mpk exemplary compound 82 or 30 mpk exemplary compound 382 or vehicle intravenously. Twenty-four hours post dose, the animals were sacrificed, and cortical brain samples were analyzed for pathologic tau by Wes capillary gel electrophoresis. FIG. 3A is a graphical representation of the averaged analysis of pathologic tau shown for each animal tested comparing lanes from the vehicle control to either exemplary compound 82 or exemplary compound 382 as indicated in FIG. 3B. Greater than 95% reduction of pathologic tau was observed following treatment of the Tg2508 animals with either exemplary compound 82 or exemplary compound 382.
FIG. 5. […] Tg2508 animals were dosed with either 15, 3, 1 or 0.3 mpk of bifunctional compound 382 intravenously, as described in materials and methods. Hippocampal extracts were analyzed for either pathologic tau levels by Wes or bifunctional compound levels at each given dose as shown.

[2] = test system: seeding competent tau species (MC1-positive seeded conformational tau) in ChoK1-Tau P301L cells; experiment: Tg2508 ex-vivo seeding of P301L CHO cells, MC1 high content image analysis; type: cell-based, Tg2508 mice; settings: 24 hours
Protocol: FIGS. 4A, 4B, and 4C. […] Briefly, ChoK1-Tau P301L cells were treated with K18 tau preformed fibrils (PFFs) or extracts from Tg2508 brain samples. Seeded conformational tau species were detected by MC1 antibody positivity and quantified as MC1 spot average intensity per cell on the Image Express high content platform.

Tau P301L = molecular target: T2, Tau P301L (Homo sapiens, UniProt P10636, P618L); experiment: In vitro tau degradation assay in CHOK1 Tau P301L cells (sarkosyl insoluble tau, WES); type: cell-based; settings: for remaining activity at 1 µM: CHO-K1, relative to DMSO doxycycline control, read-out: Tau Protein Degradation effect at 1 μM
T2 construct: expressed in transfected cells
T2 sequence (P10636 1-441 isoform P10636-8 P301L): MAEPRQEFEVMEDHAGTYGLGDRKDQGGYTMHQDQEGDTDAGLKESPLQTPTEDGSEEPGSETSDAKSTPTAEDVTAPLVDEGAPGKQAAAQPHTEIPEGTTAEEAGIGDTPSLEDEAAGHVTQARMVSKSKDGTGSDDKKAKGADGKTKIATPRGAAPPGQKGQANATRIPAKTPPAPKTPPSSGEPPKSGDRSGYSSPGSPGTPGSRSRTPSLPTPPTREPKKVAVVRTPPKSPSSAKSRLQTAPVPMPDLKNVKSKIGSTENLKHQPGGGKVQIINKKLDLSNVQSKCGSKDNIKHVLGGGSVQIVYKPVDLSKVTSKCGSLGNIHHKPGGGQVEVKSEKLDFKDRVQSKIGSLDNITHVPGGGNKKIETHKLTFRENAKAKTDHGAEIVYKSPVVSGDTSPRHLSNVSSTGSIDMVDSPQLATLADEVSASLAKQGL
Summary of the method: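 T-Rex CHOK1 clone D1 with doxycycline-inducible (1 μg/ml) Tau P301L treated 48 h with compound at 1 μM, doxycycline removed for the final 24 h. Sarkosyl-insoluble tau quantified by WES capillary electrophoresis with Tau1 antibody, expressed relative to DMSO doxycycline control and binned as ≤50% or >50% remaining.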

pathologic tau [3] = molecular target: T1, pathologic tau; experiment: In vivo tau degradation assay in Tg2508 tauopathy mice (sarkosyl insoluble tau, Wes); settings: Tg2508 mice, 15, 3, 1 or 0.3 mpk parenterally, 24 hours post dose
Protocol: as §1, with “3B.” for “3B. Exemplary bifunctional compounds degrade greater than 95% of pathologic tau in Tg2508 brain following parenteral administration in vivo.”, “parenterally, as described below (Lewis et al., 2000).” for “intravenously.”, “sacrificed” for “sacrificed,”
FIG. 5. Tg2508 animals were dosed with either 15, 3, 1 or 0.3 mpk of bifunctional compound exemplary compound 382 parenterally, as described in materials and methods. Hippocampal extracts were analyzed for either pathologic tau levels by Wes or bifunctional compound levels at each given dose as shown.
In vivo tau Degradation Assay for FIGS. 3A, 3B and 5. […] Hetero-bifunctional degrader molecule concentrations were determined using standand liquid chromatography and mass spectroscopy methodologies (Drumetix).

[4] = molecular target: T3, seeded conformational tau (MC1) (Homo sapiens, UniProt P10636, P618L); experiment: Tg2508 ex-vivo tau seeding assay in ChoK1-Tau P301L cells (MC1 high content imaging); type: cell-based, mice; settings: 24 hours, MC1 spot intensity in ChoK1-Tau P301L cells
T3 construct: tissue Taconic; host or cells: cortex / hippocampus of Tg2508 transgenic mice, sarkosyl-insoluble fraction or brain extract
T3 sequence (P10636 1-383 isoform P10636-6 P243L): as the sequence (P10636 1-383 isoform P10636-6 P243L) above
Protocol: FIGS. 4A, 4B, and 4C. Briefly, ChoK1-Tau P301L cells were treated with K18 tau preformed fibrils (PFFs) or extracts from Tg2508 brain samples (as described in Materials and Methods; PFF generation modified from Holmes et al. PNAS. 2014. Proteopathic tau seeding predicts tauopathy in vivo. Oct. 111 (41) E4376-85). Seeded conformational tau species are detected by MC1 antibody positivity and quantified as MC1 spot average intensity per cell on the Image Express™ high content platform.
In vitro tau Seeding Assay for FIGS. 4A, 4B, and 4C. Tau P301L T-Rex CHO Cells were plated on BioCoat Collagen 96 well microplates that were also poly-D-lysine coated. Media was removed, cells were washed with DPBS, trypsinized and plated at 50,000 cells per mL with Doxycycline […] and no doxycycline control for 24 hours. […]

P301L tau = molecular target: T4, P301L tau (Homo sapiens, UniProt P10636, P618L); experiment: Tau degradation in doxycycline-induced ChoK1-Tau P301L clone D1 cells; type: cell-based
T4 construct: expressed in transfected cells
T4 sequence (P10636 1-441 isoform P10636-8 P301L): as the sequence (P10636 1-441 isoform P10636-8 P301L) above
Protocol: FIGS. 2A, 2B, and 2C. Tau targeting bifunctional molecules are potent P301L tau degraders in vitro, which depends upon both binding to the tau binding moiety and the E3 ligase binding moiety (ULM). (2A) Tau expression was induced by addition (+) of doxycycline (1 μg/ml) to ChoK1-Tau P301L clone D1 for 24 hours followed by a 24 hour doxycycline washout period where only bifunctional molecule was present.

[5] = single parenteral treatment 30 mpk
[6] = remaining tau protein in sarkosyl insoluble pellet, CHOK1 Tau P301L cells treated 48 hours with test compound at 1 μM, doxycycline removed for the last 24 hours
[7] = 10-fold molar excess pomalidomide
[8] = similar competition (10-fold molar excess) with flortaucipir
[9] = single parenteral treatment 15 mpk

Compound: COc1ccc2nc(/C=C/C=C/c3ccc(OCCOCCOCCOCCOc4ccc5c(c4)C(=O)N(C4CCC(=O)NC4=O)C5=O)nc3)sc2c1 (stereo not drawn) [Compound 628, 2-(2,6-dioxopiperidin-3-yl)-5-(2-(2-(2-(2-((5-((1E,3E)-4-(6-methoxybenzo[d]thiazol-2-yl)buta-1,3-dien-1-yl)pyridin-2-yl)oxy)ethoxy)ethoxy)ethoxy)ethoxy) isoindoline-1,3-dione]
remaining activity at 1 µM (Tau P301L; CHOK1 Tau P301L cells, remaining tau in sarkosyl insoluble pellet, 48 hours with test compound at 1 μM, doxycycline removed for last 24 hours): < 50%

Compound: Cn1c2ccncc2c2ccc(-c3ccc(O[C@H]4C[C@H](OC5CCN(CCCCCOc6ccc7c(c6)C(=O)N(C6CCC(=O)NC6=O)C7=O)CC5)C4)nc3)cc21 (stereo partly drawn) [Compound 82]
degradation of tau (P301L tau; 250 nM, 125 nM or 50 nM, ChoK1-Tau P301L clone D1, vs 0.1% DMSO): concentration-dependent degradation of tau
tau degradation under competition with E3 ligase ligand pomalidomide (P301L tau; [7]): completely inhibited
DC50 (P301L tau; ChoK1-Tau P301L clone D1, 24 h doxycycline (1 μg/ml) induction, then 24 h washout with only compound present, vs 0.1% DMSO): < 50 nM
tau degradation under competition with tau warhead ligand flortaucipir (P301L tau; [8]): Partial inhibition
seeding competent tau species in Tg2508 cortical brain extracts (MC1 spot average intensity per cell) [2, 9]: effectively degraded
tau degradation under competition with E3 ligase ligand (Tau P301L; [7]): completely inhibited
DC50 (Tau P301L; ChoK1-Tau P301L clone D1, doxycycline 1 μg/ml, 250, 125, 50 nM): < 50 nM
degradation of tau compared to 0.1% DMSO control (Tau P301L; ChoK1-Tau P301L clone D1, 250 nM, 125 nM or 50 nM): concentration-dependent degradation of tau
tau degradation under competition with tau warhead ligand (Tau P301L; [8]): Partial inhibition
seeding competent tau species in Tg2508 cortical brain extracts [4, 9]: effectively degraded

The next lines start with results.

remaining activity at 1 µM (Tau P301L; [6]): < 50%
concentration of tau protein in hippocampi (pathologic tau [3]): dose-dependently reduced
seeding competent tau species in Tg2508 cortical brain extracts [4, 5]: effectively degraded
Compound: Cn1c2ccncc2c2ccc(-c3ccc(N4CC(OC5CCN(CCCCCOc6ccc7c(c6)C(=O)N(C6CCC(=O)NC6=O)C7=O)CC5)C4)nc3)cc21 (stereo not drawn) [Compound 382, 2-(2,6-dioxopiperidin-3-yl)-5-((5-(4-((1-(5-(5-methyl-5H-pyrido[4,3-b]indol-7-yl)pyridin-2-yl)azetidin-3-yl)oxy)piperidin-1-yl)pentyl)oxy) isoindoline-1,3-dione]
pathologic tau levels in hippocampal extracts (pathologic tau [1]): A clear dose-response relationship is demonstrated
seeding competent tau species in Tg2508 cortical brain extracts (MC1 spot average intensity per cell) [2, 5]: effectively degraded

remaining activity at 1 µM (Tau P301L; [6]): > 50%
Compound: O=C1CCC(N2C(=O)c3ccc(OCCC4CCN(C[C@H]5C[C@H](Oc6cc(Nc7ccc8ncccc8n7)ccn6)C5)CC4)cc3C2=O)C(=O)N1 (stereo partly drawn) [Compound 577, 5-(2-(1-(((1r,3r)-3-((4-((1,5-napthyridin-2-yl)amino)pyridin-2-yl)oxy)cyclobutyl)methyl)piperidin-4-yl)ethoxy)-2-(2,6-dioxopiperidin-3-yl)isoindoline-1,3-dione]

remaining activity at 1 µM (Tau P301L; [6]): < 50%
Compound: O=C1CCC(N2C(=O)c3ccc(N4CCN(CCC5CC6(C5)CN(c5ccc(-c7ccc8c(c7)[nH]c7ccncc78)cn5)C6)CC4)cc3C2=O)C(=O)N1 (stereo not drawn) [Compound 599, 5-(4-(2-(2-(5-(5H-pyrido[4,3-b]indol-7-yl)pyridin-2-yl)-2-azaspiro[3.3]heptan-6-yl)ethyl)piperazin-1-yl)-2-(2,6-dioxopiperidin-3-yl)isoindoline-1,3-dione]
